Assay results from patent publication US20210318318A1, “Kinase Activity In Tumors” (Institute For Cancer Research d/b/a The Research Institute …, priority 2018, published 2021).

What was measured:
Format in all cases: cell-based, human
COV362 = assay: Short-term growth assay (CellTiter-Glo cell viability), kinase inhibitors
Experimental: (§1) Cell viability was determined by Cell Titer Glo analysis.
COV362 cells were treated with increasing concentrations of A-674563 and cell viability assessed by Cell Titer Glo according to manufacturer's instructions. Data represent the mean of six replicates.
(§2) To explore the therapeutic potential of the HGSOC kinome signature, a detailed molecular analysis of protein levels/activity, growth and survival functions was carried out in a panel of recently validated HGSOC cell lines (Coscia et al., Nat. Commun., 2016, 7, 12645) that harbor commonly encountered HGSOC mutations and genetic rearrangements (see, FIG. 5A).
(§3) For short-term growth assays, 3000-5000 cells were plated per well in 96-well plates and allowed to adhere and equilibrate overnight. Drug was added the following morning and after 120 hours of drug treatment, cell viability was assessed using the CellTiter-Glo Luminescent cell viability assay according to manufacturer (Promega). Students t tests were performed for statistical analyses and p values ≤0.05 were considered significant. For colony formation assays, cells were plated in 24-well dishes (3000-5000 cells per well) and incubated overnight before continuous drug treatment for 14 days, with drug and media replaced twice weekly. At the end of treatment, cells were rinsed with PBS and fixed with chilled methanol for 10 minutes at −20° C. Methanol was removed by aspiration, and cells were stained with 0.5% crystal violet in 20% methanol for 20 minutes at room temperature, washed with distilled water, and scanned.

Kuramochi = assay: as above
Experimental: as §1, §2, §3

OVCAR4 = assay: as above
Experimental: as §1, §2, §3

OVSAHO = assay: as above
Experimental: as §1, §2, §3

SNU-119 = assay: as above
Experimental: as §1, §2, §3

OVCAR4 cells = assay: Drug growth inhibition in cells depleted of dark kinases by siRNA (Cell Titer Glo); conditions: increasing doses of drug
Experimental: OVCAR4 cells were transfected with control nontargeting or dark kinase siRNAs and treated with escalating doses of appropriate drugs.
To explore if blocking dark kinases AAK1, STK38 or MRCKA activity in combination with current therapies improves drug efficacy, OVCAR4 cells depleted of AAK1, STK38 or MRCKA were treated with increasing doses of carboplatin, olaparib, JQ1, or a variety of kinase inhibitors in clinical trials for HGSOC.
siRNA transfections were performed using 25 nM siRNA duplex and the reverse transfection protocol. 3000-5000 cells per well were added to 96 well plates with media containing the siRNA and transfection reagent (Lipofectamine RNAiMax) according to the manufacturer's instructions. In experiments where inhibitors were used, the inhibitor was added at the time of transfection. Cells were allowed to grow for 72-120 hours post-transfection prior to CellTiter Glo (Promega) analysis. Two-to-three independent experiments were performed with each cell line and siRNA. Students t tests were performed for statistical analyses and p values ≤0.05 were considered significant. For western blot studies, the same procedure was performed with volumes and cell numbers proportionally scaled to a 60 mm or 10 cm dish, and cells were collected 24-72 hours post-transfection. siRNA product numbers and manufacturers are listed in Table 5.

CNc1ncc2cc(-c3cc(NC(=O)NCCC(C)(C)C)c(F)cc3C)c(C)nc2n1 [LY300]
Kinase inhibition profile of HGSOC cells (growth inhibition, Cell Titer Glo) (COV362; drug 1.2 uM): 0.2612 | Kinase inhibition profile of HGSOC cells (growth inhibition, Cell Titer Glo) (Kuramochi; drug 1.2 uM): 0.09151 | Kinase inhibition profile of HGSOC cells (growth inhibition, Cell Titer Glo) (OVCAR4; drug 1.2 uM): 0.6062 | Kinase inhibition profile of HGSOC cells (growth inhibition, Cell Titer Glo) (OVSAHO; drug 1.2 uM): 0.166 | Kinase inhibition profile of HGSOC cells (growth inhibition, Cell Titer Glo) (SNU-119; drug 1.2 uM): 0.6599

CS(=O)(=O)N1CCN(Cc2cc3nc(-c4cccc5[nH]ncc45)nc(N4CCOCC4)c3s2)CC1 [GDC-0941]
growth inhibition by drug combined with knockdown of STK38 (OVCAR4 cells): improved growth inhibition

C=CCn1c(=O)c2cnc(Nc3ccc(N4CCN(C)CC4)cc3)nc2n1-c1cccc(C(C)(C)O)n1 [MK-1775]
Kinase inhibition profile of HGSOC cells (growth inhibition, Cell Titer Glo) (COV362; drug 0.312 uM): 0.03494 | Kinase inhibition profile of HGSOC cells (growth inhibition, Cell Titer Glo) (Kuramochi; drug 0.312 uM): 1.111 | Kinase inhibition profile of HGSOC cells (growth inhibition, Cell Titer Glo) (OVCAR4; drug 0.312 uM): 0.6747 | Kinase inhibition profile of HGSOC cells (growth inhibition, Cell Titer Glo) (OVSAHO; drug 0.312 uM): 0.5935 | Kinase inhibition profile of HGSOC cells (growth inhibition, Cell Titer Glo) (SNU-119; drug 0.312 uM): 0.4312 | growth inhibition by drug with MRCKA knockdown relative to non-targeting control siRNA (OVCAR4 cells): enhanced growth inhibition

NC(=O)Nc1cc(-c2cccc(F)c2)sc1C(=O)N[C@H]1CCCNC1 [AZD7762]
Kinase inhibition profile of HGSOC cells (growth inhibition, Cell Titer Glo) (COV362; drug 0.312 uM): 0.05872 | Kinase inhibition profile of HGSOC cells (growth inhibition, Cell Titer Glo) (Kuramochi; drug 0.312 uM): 0.663 | Kinase inhibition profile of HGSOC cells (growth inhibition, Cell Titer Glo) (OVCAR4; drug 0.312 uM): 0 | Kinase inhibition profile of HGSOC cells (growth inhibition, Cell Titer Glo) (OVSAHO; drug 0.312 uM): 0.7988 | Kinase inhibition profile of HGSOC cells (growth inhibition, Cell Titer Glo) (SNU-119; drug 0.312 uM): 0 | growth inhibition by drug with MRCKA knockdown relative to non-targeting control siRNA (OVCAR4 cells): enhanced growth inhibition

CNCc1ccc(-c2cc(-c3nc(-c4ccc(S(=O)(=O)C(C)C)cc4)cnc3N)on2)cc1 [VX-90]
Kinase inhibition profile of HGSOC cells (growth inhibition, Cell Titer Glo) (COV362; drug 0.625 uM): 0.3346 | Kinase inhibition profile of HGSOC cells (growth inhibition, Cell Titer Glo) (Kuramochi; drug 0.625 uM): 0.6083 | Kinase inhibition profile of HGSOC cells (growth inhibition, Cell Titer Glo) (OVCAR4; drug 0.625 uM): 0.2646 | Kinase inhibition profile of HGSOC cells (growth inhibition, Cell Titer Glo) (OVSAHO; drug 0.625 uM): 0.5885 | Kinase inhibition profile of HGSOC cells (growth inhibition, Cell Titer Glo) (SNU-119; drug 0.625 uM): 0.51

COc1cc2c(Oc3ccc4[nH]c(C)cc4c3F)ncnc2cc1OCCCN1CCCC1 [Cederinib]
Kinase inhibition profile of HGSOC cells (growth inhibition, Cell Titer Glo) (COV362; drug 1.2 uM): 0.9246 | Kinase inhibition profile of HGSOC cells (growth inhibition, Cell Titer Glo) (Kuramochi; drug 1.2 uM): 0.9466 | Kinase inhibition profile of HGSOC cells (growth inhibition, Cell Titer Glo) (OVCAR4; drug 1.2 uM): 1.089 | Kinase inhibition profile of HGSOC cells (growth inhibition, Cell Titer Glo) (OVSAHO; drug 1.2 uM): 1.089 | Kinase inhibition profile of HGSOC cells (growth inhibition, Cell Titer Glo) (SNU-119; drug 1.2 uM): 0.6258

Cc1cnc(Nc2ccc(F)cc2Cl)nc1-c1c[nH]c(C(=O)N[C@H](CO)c2cccc(Cl)c2)c1 [Vx-11e]
Kinase inhibition profile of HGSOC cells (growth inhibition, Cell Titer Glo) (COV362; drug 0.625 uM): 1.014 | Kinase inhibition profile of HGSOC cells (growth inhibition, Cell Titer Glo) (Kuramochi; drug 0.625 uM): 0.3596 | Kinase inhibition profile of HGSOC cells (growth inhibition, Cell Titer Glo) (OVCAR4; drug 0.625 uM): 0.9623 | Kinase inhibition profile of HGSOC cells (growth inhibition, Cell Titer Glo) (OVSAHO; drug 0.625 uM): 0.5488 | Kinase inhibition profile of HGSOC cells (growth inhibition, Cell Titer Glo) (SNU-119; drug 0.625 uM): 0.3359

COc1cc(Nc2ncc3c(n2)-c2ccc(Cl)cc2C(c2c(F)cccc2OC)=NC3)ccc1C(=O)O [Alisertib]
Kinase inhibition profile of HGSOC cells (growth inhibition, Cell Titer Glo) (COV362; drug 0.312 uM): 1.075 | Kinase inhibition profile of HGSOC cells (growth inhibition, Cell Titer Glo) (Kuramochi; drug 0.312 uM): 0.5199 | Kinase inhibition profile of HGSOC cells (growth inhibition, Cell Titer Glo) (OVCAR4; drug 0.312 uM): 0.1016 | Kinase inhibition profile of HGSOC cells (growth inhibition, Cell Titer Glo) (OVSAHO; drug 0.312 uM): 0.5387 | Kinase inhibition profile of HGSOC cells (growth inhibition, Cell Titer Glo) (SNU-119; drug 0.312 uM): 1.057

CC(=O)c1c(C)c2cnc(Nc3ccc(N4CCNCC4)cn3)nc2n(C2CCCC2)c1=O [Palbociclib]
Kinase inhibition profile of HGSOC cells (growth inhibition, Cell Titer Glo) (COV362; drug 5 uM): 0.92 | Kinase inhibition profile of HGSOC cells (growth inhibition, Cell Titer Glo) (Kuramochi; drug 5 uM): 0.09321 | Kinase inhibition profile of HGSOC cells (growth inhibition, Cell Titer Glo) (OVCAR4; drug 5 uM): 0.7952 | Kinase inhibition profile of HGSOC cells (growth inhibition, Cell Titer Glo) (OVSAHO; drug 5 uM): 0.6956 | Kinase inhibition profile of HGSOC cells (growth inhibition, Cell Titer Glo) (SNU-119; drug 5 uM): 0.5867

CN(C)C/C=C/C(=O)Nc1ccc(C(=O)Nc2cccc(Nc3ncc(Cl)c(-c4c[nH]c5ccccc45)n3)c2)cc1 [THZ1]
Kinase inhibition profile of HGSOC cells (growth inhibition, Cell Titer Glo) (COV362; drug 0.156 uM): 1.026 | Kinase inhibition profile of HGSOC cells (growth inhibition, Cell Titer Glo) (Kuramochi; drug 0.156 uM): 0.07069 | Kinase inhibition profile of HGSOC cells (growth inhibition, Cell Titer Glo) (OVCAR4; drug 0.156 uM): 0 | Kinase inhibition profile of HGSOC cells (growth inhibition, Cell Titer Glo) (OVSAHO; drug 0.156 uM): 0 | Kinase inhibition profile of HGSOC cells (growth inhibition, Cell Titer Glo) (SNU-119; drug 0.156 uM): 0 | growth inhibition by drug combined with knockdown of STK38 (OVCAR4 cells): improved growth inhibition | growth inhibition by drug with MRCKA knockdown relative to non-targeting control siRNA (OVCAR4 cells): enhanced growth inhibition
